Tests used:
[1] = test system: Triton induced hyperlipidemia; assay: Hypolipidemic activity in Triton induced hyperlipidemia in rats; assay type: in vivo, male Wistar rats; settings: for Total Cholesterol / Triglyceride: Triton treated rats, 30 mg/kg oral gavage 2 h before Triton i.p., plasma 18 h after triton injection
Procedure: The rats were housed under optimal laboratory conditions, maintained on 12 h light and dark cycle and had free access to food (Hindustan Lever Products, Kolkata, India) and water. Animals were acclimatized to laboratory conditions before the tests. All experiments were carried out between 0900 and 1700 h. The experimental protocols were approved by the Institutional Animal Ethics Committee and conducted according to the Indian National Science Academy guidelines for the use and care of animals. Fifty five male Wistar rats were divided into the following 11 groups containing 5 animals in each group: Atrovastain and various solvates were freshly suspended in 0.5% carboxymethyl cellulose and administered by oral gavage. Two hours later, all groups except control animals received intraperitonial injection of Triton (100 mg/kg). Eighteen hours after triton injection, blood was collected from tail vein. Plasma was separated and stored at −20°C for further biochemical analysis. Total cholesterol and triglyceride were analyzed in plasma samples using diagnostic kits as per manufacturer instructions.

[2] = Enthalpy of solution by microreaction calorimetry; assay type: physicochemical; settings: for Molar enthalpy of solution in its own solvent, Solvates (ΔsolH^2): each solvate in its own solvent of solvation; for Molar enthalpy of solution in its own solvent, Solvates (ΔsolH^2) / Molar enthalpy of solution, Methanol ΔsolH (methanol): 25°C; for Enthalpy of solvation ΔsolvH: calculated by equation 3 from enthalpies of solution of drug and solvate in the solvent of solvation
Procedure: Molar enthalpy of solution (ΔHsol) was determined in phosphate buffer (pH8) as well as in methanol.
In order to determine the enthalpy associated with the solvation process the enthalpy of solution of a particular solvate was determined in its own solvent.
(3) ΔsolyH=ΔsolH^1−ΔsolH^2
Calorimetric studies were performed on Microreaction calorimeter obtained from Thermal Hazards Technology, UK. Two different solvents, viz, the phosphate buffer (pH 2) and methanol were used to determine the enthalpy of solution and the measurements were performed at 25°C. The size of sample used in this study ranged from 10 to 20 mg and was weighed (Sartorius Model CP225D) into a cylindrical glass tube covered with parafilm on one side. This cylindrical tube was submerged into the ampoule containing the solvent. A plunger with a cap was put from the open end of the tube. The same solvent was put into the reference ampoule. These were put into the sample and reference holes until both rest on the base of the holes. The apparatus was maintained at constant temperature at 25°C (±0.0005°C). The parafilm was shattered mechanically by means of plunger.

[3] = Desolvation of solvates by DSC and TGA; assay type: physicochemical; settings: for Desolvation temperature: DSC desolvation endotherm maximum, 10°C/min; for Enthalpy of desolvation, ΔdesolvH calculated from equation 4: calculated from enthalpies of solution, heat capacities and enthalpy of vapourization; for Enthalpy of desolvation per mole of solvent (binding energy): equation 1 from DSC desolvation enthalpy and TGA mass loss
Description: The desolvation temperatures account for the stability of solvates as the desolvation temperature in all these forms is much higher than the boiling point of the corresponding solvent. The quantitative estimate of the stability of these solvates is established by determining the binding energy for the solvents in all the solvates using equation 1 where the percent mass loss measured over the TG desolvation step of each solvate (ΔmS%) was related to the enthalpy change calculated over the corresponding DSC desolvation endotherm (ΔHSexp).
(1) ΔHS=ΔHSexp×100Δms%×Ms
where ΔHS (J mol^-1) is the enthalpy of desolvation (or binding energy) per mole of the bound solvent, MS is the molecular mass of the solvent.
(4) ΔdesolyH=ΔsolnH^2−ΔsolnH^1−ΔCPTdesoly−25+1/2ΔyapH
. A mass between 2–8 mg was taken into the aluminium pan, covered with lid and sealed. DSC curves were obtained under a nitrogen purge of 50 mL per minute at a heating rate of 10°C per minute with the temperature range from 50-350°C.
Loss of solvent from the samples was characterized by TGA obtained by TA Instruments-Waters LLC, USA. TGA traces were recorded at heating rates of 10°C per minute under a nitrogen purge of 50 ml per minute. Samples with masses between 1–10 mg were analyzed using platinum pan. Mass loss (%) was calculated based on the mass of the original sample.

[4] = Enthalpy of solution by microreaction calorimetry; assay type: physicochemical; settings: 25°C

Row | Structure (SMILES) | Total Cholesterol [1] [mg/dL] | Triglyceride [1] [mg/dL] | Molar enthalpy of solution in its own solvent, Solvates (ΔsolH^2) [2] [kcal/mol] | Molar enthalpy of solution, Methanol ΔsolH (methanol) [2] [kcal/mol] | Enthalpy of desolvation, ΔdesolvH calculated from equation 4 [3] [kcal/mol] | Enthalpy of desolvation per mole of solvent (binding energy) [3] [kcal/mol] | Enthalpy of desolvation, ΔdesolvH from DSC [3] [kcal/mol] | Molar enthalpy of solution, Phosphate buffer (pH8) ΔsolH [4] [kJ mol^-1] | Desolvation temperature [3] | Enthalpy of solvation ΔsolvH [2] [kcal/mol] | other results
1 | CC(C)c1c(C(=O)Nc2ccccc2)c(-c2ccccc2)c(-c2ccc(F)cc2)n1CC[C@@H](O)C[C@@H](O)CC(=O)[O-].CC(C)c1c(C(=O)Nc2ccccc2)c(-c2ccccc2)c(-c2ccc(F)cc2)n1CC[C@@H](O)C[C@@H](O)CC(=O)[O-].CCO.[Ca+2] [Solvate III] | 203 | 172 | -1.82 | 0.729 | 8.219 | 15.14 | 10.68 | 5.46 | – | – | Desolvation temperature ([3]; listed as III): 90(±8) °C; Desolvation temperature ([3]; listed as Solvate- III): 90.42 °C
2 | CC(C)c1c(C(=O)Nc2ccccc2)c(-c2ccccc2)c(-c2ccc(F)cc2)n1CC[C@@H](O)C[C@@H](O)CC(=O)[O-].CC(C)c1c(C(=O)Nc2ccccc2)c(-c2ccccc2)c(-c2ccc(F)cc2)n1CC[C@@H](O)C[C@@H](O)CC(=O)[O-].CO.[Ca+2] [Solvate V] | 198 | 170 | 0.507 | 0.507 | 6.381 | 13.12 | 6.279 | 3.85 | 70.15 °C | – | –
3 | C1CCOC1.CC(C)c1c(C(=O)Nc2ccccc2)c(-c2ccccc2)c(-c2ccc(F)cc2)n1CC[C@@H](O)C[C@@H](O)CC(=O)[O-].CC(C)c1c(C(=O)Nc2ccccc2)c(-c2ccccc2)c(-c2ccc(F)cc2)n1CC[C@@H](O)C[C@@H](O)CC(=O)[O-].[Ca+2] [Solvate II] | 201 | 170 | -2.706 | 2.38 | 13.66 | 13.19 | 12.3 | 14.31 | – | -5.299 | Desolvation temperature ([3]; listed as Solvate- II): 98.89 °C; Desolvation temperature ([3]; listed as solvate II): 90(±8) °C
4 | CC(C)c1c(C(=O)Nc2ccccc2)c(-c2ccccc2)c(-c2ccc(F)cc2)n1CC[C@@H](O)C[C@@H](O)CC(=O)[O-].CC(C)c1c(C(=O)Nc2ccccc2)c(-c2ccccc2)c(-c2ccc(F)cc2)n1CC[C@@H](O)C[C@@H](O)CC(=O)[O-].CCCCO.[Ca+2] [Solvate VIII] | 152 | 140 | -1.1 | 0.136 | 7.603 | 14.69 | 6.826 | – | 119. 5 °C | -4.293 | lipid lowering in triton treated rats (total cholesterol and TG), in words ([1]; 30 mg/kg oral gavage): performed better than pure ATC; Molar enthalpy of solution, Phosphate buffer (pH8) ΔsolH ([4]; listed as Solvate- VIII): 1.17 kJ mol^-1; Molar enthalpy of solution, Phosphate buffer (pH8) ΔsolH ([4]; listed as solvate-VIII): 2.475 kJ mol^-1
5 | CC(C)(C)O.CC(C)c1c(C(=O)Nc2ccccc2)c(-c2ccccc2)c(-c2ccc(F)cc2)n1CC[C@@H](O)C[C@@H](O)CC(=O)[O-].CC(C)c1c(C(=O)Nc2ccccc2)c(-c2ccccc2)c(-c2ccc(F)cc2)n1CC[C@@H](O)C[C@@H](O)CC(=O)[O-].CC(C)c1c(C(=O)Nc2ccccc2)c(-c2ccccc2)c(-c2ccc(F)cc2)n1CC[C@@H](O)C[C@@H](O)CC(=O)[O-].CC(C)c1c(C(=O)Nc2ccccc2)c(-c2ccccc2)c(-c2ccc(F)cc2)n1CC[C@@H](O)C[C@@H](O)CC(=O)[O-].[Ca+2].[Ca+2] [Solvate IV] | 204 | 168 | 0.755 | 1.3 | 18.72 | 32.655 | 18.85 | 11.50 | – | -7.574 | Desolvation temperature ([3]; listed as IV): 90(±8) °C; Desolvation temperature ([3]; listed as Solvate- IV): 83. 34 °C
6 | CC(C)=O.CC(C)=O.CC(C)c1c(C(=O)Nc2ccccc2)c(-c2ccccc2)c(-c2ccc(F)cc2)n1CC[C@@H](O)C[C@@H](O)CC(=O)[O-].CC(C)c1c(C(=O)Nc2ccccc2)c(-c2ccccc2)c(-c2ccc(F)cc2)n1CC[C@@H](O)C[C@@H](O)CC(=O)[O-].CC(C)c1c(C(=O)Nc2ccccc2)c(-c2ccccc2)c(-c2ccc(F)cc2)n1CC[C@@H](O)C[C@@H](O)CC(=O)[O-].CC(C)c1c(C(=O)Nc2ccccc2)c(-c2ccccc2)c(-c2ccc(F)cc2)n1CC[C@@H](O)C[C@@H](O)CC(=O)[O-].CCO.[Ca+2].[Ca+2] [Solvate VI] | 197 | 174 | -2.581 | 1.22 | 12.43 | 15.69 | 13.56 | 8.35 | – | – | Desolvation temperature ([3]; listed as Solvate-VI): 72.53 °C; Desolvation temperature ([3]; listed as solvate-VI): 72.5 °C

Reference: PMC3547732 (Chemistry Central Journal, 2012)
